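Tested at 5 concentrations; 48 h exposure; 96-well plates; endpoints linearly interpolated, else capped at highest concentration. GI50 is the concentration that inhibits growth by half.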 Activity calls are given as the source filed them. Rule as the data show it: active = GI50 up to about 1.1 µM and inactive = higher.
Key:
Experiment in all cases: NCI tumour cell line growth inhibition, 48 h
A549 = tested on: A549
CAKI-1 = tested on: CAKI-1
CCRF-CEM = tested on: CCRF-CEM
HOP-92 = tested on: HOP-92
Hs-578T = tested on: Hs-578T
KM12 = tested on: KM12
MDA-MB-435 = tested on: MDA-MB-435
OVCAR-3 = tested on: OVCAR-3
OVCAR-4 = tested on: OVCAR-4
OVCAR-5 = tested on: OVCAR-5
PC-3 = tested on: PC-3
RPMI-8226 = tested on: RPMI-8226
SF-539 = tested on: SF-539
SK-MEL-28 = tested on: SK-MEL-28
SK-OV-3 = tested on: SK-OV-3
SNB-19 = tested on: SNB-19
SR = tested on: SR
SW-620 = tested on: SW-620
TK-10 = tested on: TK-10
IGROV-1 = tested on: IGROV-1

Structure (SMILES) | GI50 (A549) | GI50 (CAKI-1) | GI50 (CCRF-CEM) | GI50 (HOP-92) | GI50 (Hs-578T) | GI50 (KM12) | GI50 (MDA-MB-435) | GI50 (OVCAR-3) | GI50 (OVCAR-4) | GI50 (OVCAR-5) | GI50 (PC-3) | GI50 (RPMI-8226) | GI50 (SF-539) | GI50 (SK-MEL-28) | GI50 (SK-OV-3) | GI50 (SNB-19) | GI50 (SR) | GI50 (SW-620) | GI50 (TK-10) | GI50 (IGROV-1)
COc1cccc2c1C(CO)N1C(C#N)C3CC(C(=O)O)C(C1C2)N3C (configuration not stated) | 7.52 µM (inactive) | 1.29 µM (inactive) | 1.1 µM (active) | 1.99 µM (inactive) | 0.238 µM (active) | 1.98 µM (inactive) | 0.349 µM (active) | 1.23 µM (inactive) | 4.91 µM (inactive) | 2.85 µM (inactive) | 0.331 µM (active) | 1.15 µM (inactive) | 1.41 µM (inactive) | 1.56 µM (inactive) | 3.6 µM (inactive) | 2.62 µM (inactive) | 2.08 µM (inactive) | 2.71 µM (inactive) | 2.11 µM (inactive) | –
Cc1ccc(OC2CC(n3cnc4ncnc(Cl)c43)OC2Oc2ccc(C)cc2)cc1 (configuration not stated) | 25.2 µM (inactive) | 2.11 µM (inactive) | – | 8.77 µM (inactive) | 21.8 µM (inactive) | 18.4 µM (inactive) | 39.1 µM (inactive) | 14.6 µM (inactive) | 27.9 µM (inactive) | 22 µM (inactive) | 16.4 µM (inactive) | 2.81 µM (inactive) | 7.78 µM (inactive) | > 100 µM (inactive) | > 100 µM (inactive) | 16.1 µM (inactive) | 2.48 µM (inactive) | 48.5 µM (inactive) | > 100 µM (inactive) | 17 µM (inactive)
Cn1c(=O)c2c(no[n+]2[O-])c2ccccc21 | 23.3 µM (inactive) | 18.2 µM (inactive) | 12.8 µM (inactive) | 20.2 µM (inactive) | 23.3 µM (inactive) | 12.4 µM (inactive) | 24.8 µM (inactive) | 22.1 µM (inactive) | 18.4 µM (inactive) | > 10 µM (inactive) | 24.9 µM (inactive) | 22.2 µM (inactive) | 25.8 µM (inactive) | – | 33 µM (inactive) | 26.4 µM (inactive) | 5 µM (inactive) | 20 µM (inactive) | 27.8 µM (inactive) | 7.24 µM (inactive)
CCCCn1c2c(n(CCCC)c1=S)-c1c(n(CCCC)c(=S)n1CCCC)SSSS2 | 26.7 µM (inactive) | 0.543 µM (active) | 0.0957 µM (active) | 0.301 µM (active) | 3.82 µM (inactive) | 8.93 µM (inactive) | 2.41 µM (inactive) | 0.267 µM (active) | 0.367 µM (active) | 0.362 µM (active) | 0.414 µM (active) | 0.399 µM (active) | 0.783 µM (active) | 9.02 µM (inactive) | 46.1 µM (inactive) | 3.86 µM (inactive) | 0.397 µM (active) | 0.348 µM (active) | 1.22 µM (inactive) | 0.7 µM (active)
COc1cc2c(cc1OC)C1c3ccccc3CCN1CC2 (configuration not stated) | > 100 µM (inactive) | > 100 µM (inactive) | > 100 µM (inactive) | 59.3 µM (inactive) | 58.2 µM (inactive) | > 100 µM (inactive) | 37.2 µM (inactive) | > 100 µM (inactive) | > 100 µM (inactive) | > 100 µM (inactive) | > 100 µM (inactive) | – | 31.1 µM (inactive) | 79.3 µM (inactive) | > 100 µM (inactive) | > 100 µM (inactive) | > 100 µM (inactive) | 63.2 µM (inactive) | > 100 µM (inactive) | 53.3 µM (inactive)
Cc1cccc(/C(Br)=C2/OC(=O)c3ccccc32)c1 | > 100 µM (inactive) | > 100 µM (inactive) | > 100 µM (inactive) | > 100 µM (inactive) | > 100 µM (inactive) | > 100 µM (inactive) | > 100 µM (inactive) | > 100 µM (inactive) | > 100 µM (inactive) | > 100 µM (inactive) | > 100 µM (inactive) | > 100 µM (inactive) | > 100 µM (inactive) | > 100 µM (inactive) | > 100 µM (inactive) | – | > 100 µM (inactive) | > 100 µM (inactive) | > 100 µM (inactive) | > 100 µM (inactive)
C(=C\c1cccc(/C=C/c2ccccn2)n1)/c1ccccn1 | > 100 µM (inactive) | 50.7 µM (inactive) | 37 µM (inactive) | > 100 µM (inactive) | 19.5 µM (inactive) | 46.8 µM (inactive) | 83.8 µM (inactive) | 79.3 µM (inactive) | 60.4 µM (inactive) | > 100 µM (inactive) | 58.9 µM (inactive) | 43.6 µM (inactive) | > 100 µM (inactive) | 81.3 µM (inactive) | > 100 µM (inactive) | > 100 µM (inactive) | 62.2 µM (inactive) | 59.4 µM (inactive) | > 100 µM (inactive) | 61.8 µM (inactive)
Oc1ccc(O)c(CNc2ccc(C(O)C(F)(F)F)cc2)c1 (configuration not stated) | 31.6 µM (inactive) | 16 µM (inactive) | 3.21 µM (inactive) | 13.6 µM (inactive) | 41.2 µM (inactive) | – | 11.9 µM (inactive) | 3.98 µM (inactive) | 16.3 µM (inactive) | 20.5 µM (inactive) | 16.3 µM (inactive) | – | 4.85 µM (inactive) | 31.6 µM (inactive) | 44.3 µM (inactive) | 44.9 µM (inactive) | 6.3 µM (inactive) | 32.2 µM (inactive) | 17.8 µM (inactive) | 12.9 µM (inactive)
CC(=O)Oc1ccc2ccc(=O)oc2c1OC(C)=O | 30.1 µM (inactive) | 43.6 µM (inactive) | 10.6 µM (inactive) | 64.3 µM (inactive) | 61.9 µM (inactive) | 44.4 µM (inactive) | 39.1 µM (inactive) | 29.9 µM (inactive) | 35 µM (inactive) | > 100 µM (inactive) | 43 µM (inactive) | 28.4 µM (inactive) | 43.4 µM (inactive) | > 100 µM (inactive) | 73.1 µM (inactive) | 32.6 µM (inactive) | 28 µM (inactive) | 37.1 µM (inactive) | 78.2 µM (inactive) | 57.1 µM (inactive)
OC1CCN(c2c3ccccc3nc3ccccc23)CC1 | 44.4 µM (inactive) | 20.1 µM (inactive) | – | 6.9 µM (inactive) | 35.1 µM (inactive) | 37.2 µM (inactive) | 19.7 µM (inactive) | 7.23 µM (inactive) | 17.6 µM (inactive) | 51.8 µM (inactive) | 25.5 µM (inactive) | 4.82 µM (inactive) | 33 µM (inactive) | 2.69 µM (inactive) | 39.7 µM (inactive) | 27.9 µM (inactive) | 2.77 µM (inactive) | 3.36 µM (inactive) | 4.03 µM (inactive) | 14.6 µM (inactive)
CCOC(=O)N1C=CC(=C2C(=C3C=CN(C(=O)OCC)C=C3)C(=C3C=CN(C(=O)OCC)C=C3)C2=C2C=CN(C(=O)OCC)C=C2)C=C1 | 24.4 µM (inactive) | 16.7 µM (inactive) | – | 0.0637 µM (active) | 16 µM (inactive) | 22.1 µM (inactive) | 22.2 µM (inactive) | 22.4 µM (inactive) | 38 µM (inactive) | 36.8 µM (inactive) | 17.1 µM (inactive) | – | 25 µM (inactive) | 27.5 µM (inactive) | 44 µM (inactive) | 64.6 µM (inactive) | 6.24 µM (inactive) | 17 µM (inactive) | 26 µM (inactive) | 16.1 µM (inactive)
CC(C)(C)c1cc(C(C)(C)C)c(SC2OC(CO)C(O)C(O)C2O)c(O)c1O (configuration not stated) | 3.84 µM (inactive) | 17.9 µM (inactive) | 5.27 µM (inactive) | 11.6 µM (inactive) | 3.22 µM (inactive) | 6.87 µM (inactive) | 4.94 µM (inactive) | 7.66 µM (inactive) | 12.3 µM (inactive) | 9.18 µM (inactive) | 9.18 µM (inactive) | 15.1 µM (inactive) | 3.48 µM (inactive) | 15.6 µM (inactive) | 15.2 µM (inactive) | 8.02 µM (inactive) | 4.52 µM (inactive) | 19.3 µM (inactive) | 12.1 µM (inactive) | 9.64 µM (inactive)
COC(=O)C(Cc1nc2ccccc2nc1O)C(=O)C(=O)Nc1cc(C(F)(F)F)ccc1Cl (configuration not stated) | 69.2 µM (inactive) | 15.4 µM (inactive) | 1.51 µM (inactive) | 11.6 µM (inactive) | 12.7 µM (inactive) | 14.5 µM (inactive) | 19.4 µM (inactive) | 12.8 µM (inactive) | 12.1 µM (inactive) | 19.4 µM (inactive) | 17 µM (inactive) | 7.01 µM (inactive) | – | 25.4 µM (inactive) | 35.3 µM (inactive) | – | 4.58 µM (inactive) | 13.8 µM (inactive) | 21.1 µM (inactive) | 12.2 µM (inactive)
COc1ccccc1/N=N/c1c(O)c(S(=O)(=O)O)cc2cc(S(=O)(=O)O)ccc12 | > 100 µM (inactive) | > 100 µM (inactive) | > 100 µM (inactive) | > 100 µM (inactive) | > 100 µM (inactive) | > 100 µM (inactive) | > 100 µM (inactive) | > 100 µM (inactive) | > 100 µM (inactive) | > 100 µM (inactive) | > 100 µM (inactive) | > 100 µM (inactive) | – | > 100 µM (inactive) | > 100 µM (inactive) | > 100 µM (inactive) | > 100 µM (inactive) | > 100 µM (inactive) | > 100 µM (inactive) | > 100 µM (inactive)
